Test results: ChEMBL document CHEMBL3862025, “Novel substituted hydrazono indolo[2,1-b]quinazoline-6,12-dione analogues as cytostatic agents: Synthesis, crystal structure, biological evaluation and molecular docking studies” (Bioorg Med Chem Lett, 2016)
In brackets after ≈: the same amount, converted by molar mass.

Assays:
[1] = Cytotoxicity against human MCF7 cells assessed as inhibition of cell viability after 48 hrs by MTT assay; assay type: functional, cell-based; settings: MCF7, 48 h
[2] = Cytotoxicity against human A549 cells assessed as inhibition of cell viability after 48 hrs by MTT assay; assay type: functional, cell-based; settings: A549, 48 h
[3] = Cytotoxicity against human HeLa cells assessed as inhibition of cell viability after 48 hrs by MTT assay; assay type: functional, cell-based
[4] = system: Staphylococcus aureus; assay: Antibacterial activity against Staphylococcus aureus after 24 hrs by broth dilution method; assay type: functional
[5] = system: Bacillus subtilis; assay: Antibacterial activity against Bacillus subtilis after 24 hrs by broth dilution method; assay type: functional
[6] = system: Klebsiella pneumoniae; assay: Antibacterial activity against Klebsiella pneumoniae after 24 hrs by broth dilution method; assay type: functional
[7] = system: Escherichia coli; assay: Antibacterial activity against Escherichia coli after 24 hrs by broth dilution method; assay type: functional
[8] = system: Aspergillus niger; assay: Antifungal activity against Aspergillus niger by agar streak dilution method; assay type: functional
[9] = Antifungal activity against Penicillium notatum by agar streak dilution method; assay type: functional; settings: Penicillium chrysogenum
[10] = Cytotoxicity against HEK293 cells assessed as inhibition of cell viability after 48 hrs by MTT assay; assay type: toxicity, cell-based; settings: human

C/C(O)=C/C(C)=N/N=C1/c2ccccc2-n2c1nc1ccccc1c2=O
IC50 [1]: 42.1 µM
IC50 [2]: 43.9 µM
IC50 [3]: 44.8 µM
MIC [4]: 25 µg/mL (≈ 72.6 µM)
MIC [5]: 25 µg/mL (≈ 72.6 µM)
MIC [6]: 12.5 µg/mL (≈ 36.3 µM)
MIC [7]: 50 µg/mL (≈ 145 µM)
MIC [8]: > 100 µg/mL
MIC [9]: > 100 µg/mL

COc1ccc2c(c1)/C(=N/N=C1/C=C(O)CC(C)(C)C1)c1nc3ccccc3c(=O)n1-2
IC50 [1]: 68.7 µM
IC50 [2]: 67.8 µM
IC50 [3]: 56.9 µM
MIC [4]: > 100 µg/mL
MIC [5]: > 100 µg/mL
MIC [6]: > 100 µg/mL
MIC [7]: > 100 µg/mL
MIC [8]: 100 µg/mL (≈ 241 µM)
MIC [9]: > 100 µg/mL

O=c1c2ccccc2nc2n1-c1ccc(Br)cc1/C2=N/N=C1/C=C(O)CCC1
IC50 [1]: 43.9 µM
IC50 [2]: 41.7 µM
IC50 [3]: 35.8 µM
MIC [4]: 6.25 µg/mL (≈ 14.4 µM)
MIC [5]: 3.12 µg/mL (≈ 7.18 µM)
MIC [6]: 6.25 µg/mL (≈ 14.4 µM)
MIC [7]: 12.5 µg/mL (≈ 28.7 µM)
MIC [8]: 6.25 µg/mL (≈ 14.4 µM)
MIC [9]: 6.25 µg/mL (≈ 14.4 µM)

COc1ccc2c(c1)/C(=N/N=C1/C=C(O)CCC1)c1nc3ccccc3c(=O)n1-2
IC50 [1]: 32.7 µM
IC50 [2]: 36 µM
IC50 [3]: 32.1 µM
MIC [4]: 3.12 µg/mL (≈ 8.09 µM)
MIC [5]: 6.25 µg/mL (≈ 16.2 µM)
MIC [6]: 6.25 µg/mL (≈ 16.2 µM)
MIC [7]: 12.5 µg/mL (≈ 32.3 µM)
MIC [8]: 100 µg/mL (≈ 259 µM)
MIC [9]: 12.5 µg/mL (≈ 32.3 µM)

CC(C=C(O)c1ccccc1)=N/N=C1/c2cc(Br)ccc2-n2c1nc1ccccc1c2=O
IC50 [1]: 7.14 µM
IC50 [2]: 9.18 µM
IC50 [3]: 10.6 µM
IC50 at 48 h [10]: 46.1 µM
MIC [4]: > 100 µg/mL
MIC [5]: > 100 µg/mL
MIC [6]: > 100 µg/mL
MIC [7]: > 100 µg/mL
MIC [8]: 25 µg/mL (≈ 51.5 µM)
MIC [9]: 25 µg/mL (≈ 51.5 µM)

CC1(C)CC(O)=C/C(=N/N=C2/c3ccccc3-n3c2nc2ccccc2c3=O)C1
IC50 [1]: 68.8 µM
IC50 [2]: 66.2 µM
IC50 [3]: 59.3 µM
MIC [4]: 50 µg/mL (≈ 130 µM)
MIC [5]: 50 µg/mL (≈ 130 µM)
MIC [6]: 12.5 µg/mL (≈ 32.5 µM)
MIC [7]: 50 µg/mL (≈ 130 µM)
MIC [8]: 100 µg/mL (≈ 260 µM)
MIC [9]: 100 µg/mL (≈ 260 µM)

CC(=O)N1CCN(c2ccc(OCC3COC(Cn4ccnc4)(c4ccc(Cl)cc4Cl)O3)cc2)CC1 (configuration not stated) [KETOCONAZOLE]
MIC [8]: 3.12 µg/mL (≈ 5.88 µM)
MIC [9]: 3.12 µg/mL (≈ 5.88 µM)

COc1ccc2c(c1)/C(=N/N=C(C)C=C(O)c1ccccc1)c1nc3ccccc3c(=O)n1-2
IC50 [1]: 31.1 µM
IC50 [2]: 29.3 µM
IC50 [3]: 33.7 µM
MIC [4]: > 100 µg/mL
MIC [5]: > 100 µg/mL
MIC [6]: > 100 µg/mL
MIC [7]: > 100 µg/mL
MIC [8]: 25 µg/mL (≈ 57.3 µM)
MIC [9]: 50 µg/mL (≈ 115 µM)

O=c1c2ccccc2nc2n1-c1ccc(Br)cc1/C2=N/N=C1/C=C(O)c2ccccc21
IC50 [1]: 15.9 µM
IC50 [2]: 20.4 µM
IC50 [3]: 17 µM
IC50 at 48 h [10]: 55.2 µM
MIC [4]: 1.56 µg/mL (≈ 3.33 µM)
MIC [5]: 1.56 µg/mL (≈ 3.33 µM)
MIC [6]: 3.12 µg/mL (≈ 6.66 µM)
MIC [7]: 3.12 µg/mL (≈ 6.66 µM)
MIC [8]: 3.12 µg/mL (≈ 6.66 µM)
MIC [9]: 6.25 µg/mL (≈ 13.3 µM)

COc1ccc2c(c1)/C(=N/N)c1nc3ccccc3c(=O)n1-2
IC50 [1]: 32.3 µM
IC50 [2]: 31.2 µM
IC50 [3]: 29.2 µM
MIC [4]: > 100 µg/mL
MIC [5]: > 100 µg/mL
MIC [6]: > 100 µg/mL
MIC [7]: > 100 µg/mL
MIC [8]: > 100 µg/mL
MIC [9]: 50 µg/mL (≈ 171 µM)

CC1(C)CC(O)=C/C(=N/N=C2/c3cc(Br)ccc3-n3c2nc2ccccc2c3=O)C1
IC50 [1]: 40 µM
IC50 [2]: 46.3 µM
IC50 [3]: 39.8 µM
MIC [4]: > 100 µg/mL
MIC [5]: > 100 µg/mL
MIC [6]: > 100 µg/mL
MIC [7]: > 100 µg/mL
MIC [8]: 100 µg/mL (≈ 216 µM)
MIC [9]: > 100 µg/mL

N/N=C1/c2ccccc2-n2c1nc1ccccc1c2=O
IC50 [1]: 25.2 µM
IC50 [2]: 28.7 µM
IC50 [3]: 25.6 µM
MIC [4]: 50 µg/mL (≈ 191 µM)
MIC [5]: > 100 µg/mL
MIC [6]: 50 µg/mL (≈ 191 µM)
MIC [7]: > 100 µg/mL
MIC [8]: 50 µg/mL (≈ 191 µM)
MIC [9]: > 100 µg/mL

COc1ccc2c(c1)/C(=N/N=C(C)C=C(C)O)c1nc3ccccc3c(=O)n1-2
IC50 [1]: 47.9 µM
IC50 [2]: 46.7 µM
IC50 [3]: 49.1 µM
MIC [4]: 12.5 µg/mL (≈ 33.4 µM)
MIC [5]: 50 µg/mL (≈ 134 µM)
MIC [6]: 50 µg/mL (≈ 134 µM)
MIC [7]: 50 µg/mL (≈ 134 µM)
MIC [8]: > 100 µg/mL
MIC [9]: 100 µg/mL (≈ 267 µM)

N/N=C1/c2cc(Br)ccc2-n2c1nc1ccccc1c2=O
IC50 [1]: 23.2 µM
IC50 [2]: 23.1 µM
IC50 [3]: 22.1 µM
MIC [4]: > 100 µg/mL
MIC [5]: 50 µg/mL (≈ 147 µM)
MIC [6]: 25 µg/mL (≈ 73.3 µM)
MIC [7]: > 100 µg/mL
MIC [8]: 50 µg/mL (≈ 147 µM)
MIC [9]: 50 µg/mL (≈ 147 µM)

CC(C=C(O)c1ccccc1)=N/N=C1/c2ccccc2-n2c1nc1ccccc1c2=O
IC50 [1]: 26.2 µM
IC50 [2]: 17.6 µM
IC50 [3]: 25.2 µM
IC50 at 48 h [10]: 68.1 µM
MIC [4]: > 100 µg/mL
MIC [5]: > 100 µg/mL
MIC [6]: > 100 µg/mL
MIC [7]: > 100 µg/mL
MIC [8]: 25 µg/mL (≈ 61.5 µM)
MIC [9]: 25 µg/mL (≈ 61.5 µM)

COc1ccc2c(c1)/C(=N/N=C1/C=C(O)c3ccccc31)c1nc3ccccc3c(=O)n1-2
IC50 [1]: 60.9 µM
IC50 [2]: 63.5 µM
IC50 [3]: 62.3 µM
MIC [4]: 1.56 µg/mL (≈ 3.72 µM)
MIC [5]: 3.12 µg/mL (≈ 7.43 µM)
MIC [6]: 12.5 µg/mL (≈ 29.7 µM)
MIC [7]: 6.25 µg/mL (≈ 14.9 µM)
MIC [8]: 50 µg/mL (≈ 119 µM)
MIC [9]: 50 µg/mL (≈ 119 µM)

CC(O)=CC(C)=N/N=C1/c2cc(Br)ccc2-n2c1nc1ccccc1c2=O
IC50 [1]: 33 µM
IC50 [2]: 31.1 µM
IC50 [3]: 31.2 µM
MIC [4]: 50 µg/mL (≈ 118 µM)
MIC [5]: 50 µg/mL (≈ 118 µM)
MIC [6]: > 100 µg/mL
MIC [7]: 50 µg/mL (≈ 118 µM)
MIC [8]: > 100 µg/mL
MIC [9]: > 100 µg/mL

O=c1c2ccccc2nc2n1-c1ccccc1/C2=N/N=C1/C=C(O)c2ccccc21
IC50 [1]: 50.3 µM
IC50 [2]: 56.4 µM
IC50 [3]: 49.4 µM
MIC [4]: 3.12 µg/mL (≈ 8 µM)
MIC [5]: 6.25 µg/mL (≈ 16 µM)
MIC [6]: 1.56 µg/mL (≈ 4 µM)
MIC [7]: 12.5 µg/mL (≈ 32 µM)
MIC [8]: 6.25 µg/mL (≈ 16 µM)
MIC [9]: 12.5 µg/mL (≈ 32 µM)

O=c1c2ccccc2nc2n1-c1ccccc1/C2=N/N=C1/C=C(O)CCC1
IC50 [1]: 27.9 µM
IC50 [2]: 29.8 µM
IC50 [3]: 23.9 µM
MIC [4]: 6.25 µg/mL (≈ 17.5 µM)
MIC [5]: 3.12 µg/mL (≈ 8.77 µM)
MIC [6]: 12.5 µg/mL (≈ 35.1 µM)
MIC [7]: 6.25 µg/mL (≈ 17.5 µM)
MIC [8]: 12.5 µg/mL (≈ 35.1 µM)
MIC [9]: 25 µg/mL (≈ 70.1 µM)

CCO/C(O)=C/C(C)=N/N=C1/c2cc(Br)ccc2-n2c1nc1ccccc1c2=O
IC50 [1]: 36.6 µM
IC50 [2]: 40 µM
IC50 [3]: 36.7 µM
MIC [4]: 1.56 µg/mL (≈ 3.45 µM)
MIC [5]: 3.12 µg/mL (≈ 6.89 µM)
MIC [6]: 12.5 µg/mL (≈ 27.6 µM)
MIC [7]: 6.25 µg/mL (≈ 13.8 µM)
MIC [8]: 6.25 µg/mL (≈ 13.8 µM)
MIC [9]: 3.12 µg/mL (≈ 6.89 µM)

CCO/C(O)=C/C(C)=N/N=C1/c2cc(OC)ccc2-n2c1nc1ccccc1c2=O
IC50 [1]: 54.5 µM
IC50 [2]: 56.2 µM
IC50 [3]: 58.2 µM
MIC [4]: 6.25 µg/mL (≈ 15.5 µM)
MIC [5]: 6.25 µg/mL (≈ 15.5 µM)
MIC [6]: 3.12 µg/mL (≈ 7.73 µM)
MIC [7]: 12.5 µg/mL (≈ 30.9 µM)
MIC [8]: 50 µg/mL (≈ 124 µM)
MIC [9]: 50 µg/mL (≈ 124 µM)

CCO/C(O)=C/C(C)=N/N=C1/c2ccccc2-n2c1nc1ccccc1c2=O
IC50 [1]: 50.6 µM
IC50 [2]: 51.1 µM
IC50 [3]: 42.9 µM
MIC [4]: 6.25 µg/mL (≈ 16.7 µM)
MIC [5]: 6.25 µg/mL (≈ 16.7 µM)
MIC [6]: 12.5 µg/mL (≈ 33.4 µM)
MIC [7]: 12.5 µg/mL (≈ 33.4 µM)
MIC [8]: 12.5 µg/mL (≈ 33.4 µM)
MIC [9]: 25 µg/mL (≈ 66.8 µM)

CN[C@@H]1[C@H](O[C@H]2[C@H](O[C@H]3[C@H](O)[C@@H](O)[C@H](N=C(N)N)[C@@H](O)[C@@H]3N=C(N)N)O[C@@H](C)[C@]2(O)C=O)O[C@@H](CO)[C@H](O)[C@H]1O [STREPTOMYCIN]
MIC [4]: 6.25 µg/mL (≈ 10.7 µM)
MIC [5]: 3.12 µg/mL (≈ 5.37 µM)
MIC [6]: 1.56 µg/mL (≈ 2.69 µM)
MIC [7]: 6.25 µg/mL (≈ 10.7 µM)

CC(O)=CC(C)=N/N=C1/c2cc(C)cc(C)c2-n2c1nc1ccccc1c2=O
IC50 [1]: 44.5 µM
IC50 [2]: 46.6 µM
IC50 [3]: 42 µM
MIC [4]: 12.5 µg/mL (≈ 33.6 µM)
MIC [5]: 12.5 µg/mL (≈ 33.6 µM)
MIC [6]: 6.25 µg/mL (≈ 16.8 µM)
MIC [7]: 25 µg/mL (≈ 67.1 µM)
MIC [8]: 100 µg/mL (≈ 269 µM)
MIC [9]: 100 µg/mL (≈ 269 µM)
